Source: US20240109880A1 (Insilico Medicine IP Limited, priority 2021, published 2024)
In brackets after ≈: the same amount, converted by molar mass.

Legend:
KAT6A = KAT6A (Homo sapiens (Human), UniProt Q92794); assay: KAT6A Biochemical Assay (radiometric 384-well, [3H]-Ac-CoA, biotinylated H4(1-30) peptide); conditions: 5 nM KAT6A enzyme solution (2×), 60 min reaction at room temperature
Method: Inhibition of KAT6A enzymatic activity by test compounds was determined using a radiometric 384-well format assay. A 10-point serial dilution of the test compounds were conducted in DMSO and then a volume of 200 nL was transferred into 384-well assay plate by Echo (Labcyte). 10 μL of 2× enzyme solution (5 nM KAT6A (Active Motif) in assay buffer (50 mM Tris-HCl pH 8.0, 50 mM KCl, 0.1 mM EDTA, 5% glycerol, 1 mM DTT)) was dispensed into assay plate except for low control wells, in which 10 μL of assay buffer was transferred. The plate was incubated at room temperature for 15 min before addition of 10 μL of 2×[^3H]-acetyl coenzyme A (Ac-CoA) and substrate peptide mix solution (500 nM (KAT6A) [^3H]-Ac-CoA (PerkinElmer) and 800 nM (KAT6A) biotinylated H4(1-30) peptide (GL Biochem) in assay buffer) to each well to start reaction. The plate was incubated at room temperature for 60 min (KAT6A), and then the reaction was stopped by adding 10 μL of stop solution (cold Ac-CoA (Cayman) in 1× assay buffer). 25 μL of reaction in each well was transferred to Flashplate (PerkinElmer) and incubated for another 1 hour at room temperature. The plate was read on Microbeta and the inhibition percentage of each compound treated well was calculated based on the equation in h %=(Max−sample)/(Max−Min)*100 where Max is signal from high control wells with enzyme, and Min is signal from low control wells with assay buffer only. The in h % data were further fit in XL-Fit to obtain IC50 values using a 4-parameter logistic (4PL) sigmoidal curve model.

[1] = Kinetic solubility in 50 mM phosphate buffer (pH 7.4); format: physicochemical; conditions: for solubility kinetic at 24 h: aqueous buffer, kinetic from dmso stock, 50 mM phosphate buffer pH 7.4, 24 hours at room temperature
Method: 10 μL of 10 mM in DMSO of test and control compounds was added into lower chambers of whatman miniuniprep vials, respectively. 490 μL of 50 mM PB (pH 7.4) was added into lower chambers of the whatman miniuniprep vials, respectively. The solubility samples were vortexted for at least 2 minutes. The miniuniprep vials were shaken on a shaker for 24 hours at room temperature at the speed of 800 rpm and then centrifuged for 20 minutes (eg. 4000 rpm). The miniunipreps were compressed to prepare the filtrates for injection into HPLC system to calculate the concentration with standard curve.

[2] = Permeability in Caco-2 Assay; format: in vitro ADME; conditions: human, pH 7.4, 2 hours; for efflux ratio at 2 h, 2 μM: Caco-2, 2.00 μM bi-directionally; for Papp A→B at 2 h, 2 μM: Caco-2, 2.00 μM, pH 7.40
Method: (§1) Permeability of test compounds was determined in Caco-2 Assay. Caco-2 cells purchased from ATCC were seeded onto […] (PET) in 96-well Corning Insert plates at 1×10^5 cells/cm2, and refreshed medium every 4-5 days until to the 21st to 28th day for confluent cell monolayer formation. The transport buffer in the study was HBSS with 10.0 mM HEPES at pH 7.40±0.05. Test compound was tested at 2.00 μM bi-directionally in duplicate. Digoxin was tested at 10.0 μM bi-directionally in duplicate, while nadolol and metoprolol were tested at 2.00 μM in A to B direction in duplicate. Final DMSO concentration was adjusted to less than 1%. The plate was incubated for 2 hours in CO2 incubator at 37±1° C., with 5% CO2 at saturated humidity without shaking. And all samples after mixed with acetonitrile containing internal standard were centrifuged at 3200×g for 10 min. For nadolol and metoprolol, 200 μL supernatant solution was diluted with 600 μL ultra-pure water for LC-MS/MS analysis. For digoxin and test compounds, 200 μL supernatant solution was diluted with 200 μL ultra-pure water for LC-MS/MS analysis. Concentrations of test and control compounds in starting solution, donor solution, and receiver solution were quantified by LC-MS/MS methodologies, using peak area ratio of analyte/internal standard. After transport assay, lucifer yellow rejection assay was applied to determine the Caco-2 cell monolayer integrity.

Caco-2 cells = assay: Permeability in Caco-2 Assay; format: in vitro ADME; conditions: comparison from Table 4 (vs compound 47 or vs PF-9363)
Method: as §1

Sequence of KAT6A (Q92794 whole entry): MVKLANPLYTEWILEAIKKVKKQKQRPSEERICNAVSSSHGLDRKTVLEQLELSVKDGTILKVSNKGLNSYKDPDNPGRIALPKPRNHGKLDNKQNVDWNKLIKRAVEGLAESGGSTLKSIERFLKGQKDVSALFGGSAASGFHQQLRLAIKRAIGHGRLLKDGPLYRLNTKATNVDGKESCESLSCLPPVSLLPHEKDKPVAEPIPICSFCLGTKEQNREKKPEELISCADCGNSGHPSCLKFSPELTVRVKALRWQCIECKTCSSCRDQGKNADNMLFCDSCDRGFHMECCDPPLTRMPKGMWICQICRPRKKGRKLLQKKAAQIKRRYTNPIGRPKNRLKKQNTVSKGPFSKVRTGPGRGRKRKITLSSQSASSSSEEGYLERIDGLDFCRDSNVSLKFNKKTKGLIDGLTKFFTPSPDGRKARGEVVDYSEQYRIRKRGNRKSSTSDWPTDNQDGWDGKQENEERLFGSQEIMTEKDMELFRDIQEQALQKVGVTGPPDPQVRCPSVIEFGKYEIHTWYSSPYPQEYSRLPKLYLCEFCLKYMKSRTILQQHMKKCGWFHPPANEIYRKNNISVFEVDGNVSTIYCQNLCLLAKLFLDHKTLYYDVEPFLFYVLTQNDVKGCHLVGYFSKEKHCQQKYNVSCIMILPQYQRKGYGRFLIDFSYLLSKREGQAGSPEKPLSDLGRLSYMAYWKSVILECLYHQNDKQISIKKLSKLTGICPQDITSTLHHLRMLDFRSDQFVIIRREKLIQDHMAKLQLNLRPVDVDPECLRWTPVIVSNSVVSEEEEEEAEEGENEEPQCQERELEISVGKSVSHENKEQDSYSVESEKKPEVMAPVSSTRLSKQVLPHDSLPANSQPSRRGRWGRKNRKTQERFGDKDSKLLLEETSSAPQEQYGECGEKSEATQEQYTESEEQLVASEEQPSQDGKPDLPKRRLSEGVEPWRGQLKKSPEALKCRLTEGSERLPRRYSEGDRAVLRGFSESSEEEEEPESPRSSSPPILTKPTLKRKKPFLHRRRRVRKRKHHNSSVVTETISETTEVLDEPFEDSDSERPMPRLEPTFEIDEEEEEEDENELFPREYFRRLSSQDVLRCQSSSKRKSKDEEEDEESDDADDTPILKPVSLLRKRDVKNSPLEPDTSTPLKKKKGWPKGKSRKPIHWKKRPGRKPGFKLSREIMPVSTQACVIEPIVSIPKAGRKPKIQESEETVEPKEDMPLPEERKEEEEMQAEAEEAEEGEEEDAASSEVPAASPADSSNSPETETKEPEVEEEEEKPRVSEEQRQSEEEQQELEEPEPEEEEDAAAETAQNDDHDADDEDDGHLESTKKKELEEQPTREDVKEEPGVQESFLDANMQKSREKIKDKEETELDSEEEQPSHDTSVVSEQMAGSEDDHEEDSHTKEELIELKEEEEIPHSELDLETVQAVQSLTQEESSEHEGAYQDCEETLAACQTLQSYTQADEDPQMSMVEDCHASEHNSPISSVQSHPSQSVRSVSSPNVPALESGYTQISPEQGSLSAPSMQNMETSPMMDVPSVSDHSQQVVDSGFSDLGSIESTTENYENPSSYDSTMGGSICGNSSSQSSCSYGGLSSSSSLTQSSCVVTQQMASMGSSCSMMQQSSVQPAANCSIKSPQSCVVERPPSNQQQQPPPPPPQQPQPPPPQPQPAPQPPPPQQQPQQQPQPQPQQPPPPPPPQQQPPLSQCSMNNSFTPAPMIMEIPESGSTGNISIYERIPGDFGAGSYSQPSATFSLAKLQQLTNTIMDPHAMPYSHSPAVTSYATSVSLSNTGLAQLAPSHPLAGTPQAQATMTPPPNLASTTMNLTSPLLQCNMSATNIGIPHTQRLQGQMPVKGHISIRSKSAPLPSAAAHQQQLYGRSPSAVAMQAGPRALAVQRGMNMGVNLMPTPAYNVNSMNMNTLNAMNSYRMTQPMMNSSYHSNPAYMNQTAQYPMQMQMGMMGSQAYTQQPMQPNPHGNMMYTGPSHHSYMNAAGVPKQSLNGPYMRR

| IC50 (KAT6A) [nM] | solubility kinetic at 24 h [1] [µM] | efflux ratio at 2 h, 2 μM [2] | Papp A→B at 2 h, 2 μM [2] [×10⁻⁶ cm/s] | Structure (SMILES) | kinetic solubility compared with the otherwise identical compound having X group as carbon ([1]; comparison from Table 3) | permeability compared with a reference compound (Caco-2 cells) |
| --- | --- | --- | --- | --- | --- | --- |
| < 10 | 16.1 (≈ 7.58 µg/mL) | 59.6 | 0.439 | COc1cccc(OC)c1S(=O)(=O)Nc1noc2cc(Cn3cccn3)c3c(c12)OCCC3 [Compound 14, N-(5-((1H-pyrazol-1-yl)methyl)-3,4-dihydro-2H-chromeno [8,7-d]isoxazol-9-yl)-2,6-dimethoxybenzenesulfonamide] | – | – |
| < 10 | 3.34 (≈ 1.61 µg/mL) | 15.3 | 2.66 | COc1cccc(OC)c1S(=O)(=O)Nc1noc2cc(Cc3ccccn3)c3c(c12)OCCC3 [Compound 46, 2,6-dimethoxy-N-(5-(pyridin-2-ylmethyl)-3,4-dihydro-2H-chromeno[8,7-d]isoxazol-9-yl)benzenesulfonamide] | – | – |
| < 10 | 12.1 (≈ 5.9 µg/mL) | 12.3 | 3.53 | COc1cccc(OC)c1S(=O)(=O)Nc1noc2cc(Cc3nccs3)c3c(c12)OCCC3 [Compound 47] | – | – |
| < 10 | – | 2.88 | 6.48 | COc1ccccc1S(=O)(=O)Nc1noc2cc(Oc3nccs3)c3c(c12)OCCCC3 [Compound 63] | – | – |
| < 10 | – | 4.25 | 6.83 | COc1cccc(OC)c1S(=O)(=O)Nc1noc2cc(Sc3nccs3)cc(OC)c12 [Compound 66, 2,6-dimethoxy-N-(4-methoxy-6-(thiazol-2-ylthio)benzo[d]isoxazol-3-yl)benzenesulfonamide] | – | – |

Continued, molecule first:

| Structure (SMILES) | IC50 (KAT6A) [nM] | solubility kinetic at 24 h [1] [µM] | efflux ratio at 2 h, 2 μM [2] | Papp A→B at 2 h, 2 μM [2] [×10⁻⁶ cm/s] | kinetic solubility compared with the otherwise identical compound having X group as carbon ([1]; comparison from Table 3) | permeability compared with a reference compound (Caco-2 cells) |
| --- | --- | --- | --- | --- | --- | --- |
| COc1cccc(OC)c1S(=O)(=O)Nc1noc2cc(Oc3ccccn3)c3c(c12)OCCC3 [Compound 24, 2,6-dimethoxy-N-(5-(pyridin-2-yloxy)-3,4-dihydro-2H-chromeno[8,7-d]isoxazol-9-yl)benzenesulfonamide] | < 10 | 189 (≈ 91.4 µg/mL) | 3.2 | 12.9 | – | – |
| COc1cccc(OC)c1S(=O)(=O)Nc1noc2cc(Oc3nccs3)c3c(c12)OCCC3 [Compound 35, 2,6-dimethoxy-N-(5-(thiazol-2-yloxy)-3,4-dihydro-2H-chromeno[8,7-d]isoxazol-9-yl)benzenesulfonamide] | < 10 | 165 (≈ 80.8 µg/mL) | – | 8.59 | improved kinetic solubility | improved permeability |
| COc1cc(C)nc(OC)c1S(=O)(=O)Nc1noc2cc(Oc3nccs3)c3c(c12)OCCCC3 [Compound 64] | < 10 | – | 2.82 | 9 | – | – |
| COc1ccccc1S(=O)(=O)Nc1noc2cc(Sc3nccs3)cc(OC)c12 [Compound 67, 2-methoxy-N-(4-methoxy-6-(thiazol-2-ylthio)benzo[d]isoxazol-3-yl)benzenesulfonamide] | 10 to 100 | – | 1.4 | 10.9 | – | – |
| COc1cc(C)nc(OC)c1S(=O)(=O)Nc1noc2cc(Sc3nccs3)cc(OC)c12 [Compound 68, 2,4-dimethoxy-N-(4-methoxy-6-(thiazol-2-ylthio)benzo[d]isoxazol-3-yl)-6-methylpyridine-3-sulfonamide] | 10 to 100 | – | 9.74 | 2.29 | – | – |
